Values of other authors, collected in patent publication US11109615B2, “Vitamin A composition” (NESTEC S.A., priority 2015, dated 2021).

Details: ambient conditions

maximum solubility: 0.08 g/100 g oil
Structure (SMILES): CC1=C(/C=C/C(C)=C/C=C/C(C)=C/C=C/C=C(C)/C=C/C=C(C)/C=C/C2=C(C)CCCC2(C)C)C(C)(C)CCC1 [β-carotene, All-trans-β-carotene]
